Assay results published in PubChem BioAssay (NCI).
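48-hour exposure; five concentrations; linearly interpolated endpoints. At the GI50, growth is halved. At the TGI there is no net growth.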

Key:
Experiment in all cases: growth of human tumour cells (NCI), 48 h
[1] = test system: M14 melanoma
[2] = test system: COLO 205 colon
[3] = test system: HOP-92 NSCLC
[4] = test system: UACC-62 melanoma
[5] = test system: HCT-15 colon
[6] = test system: HT29 colon
[7] = test system: UO-31 renal
[8] = test system: SNB-75 CNS
[9] = test system: HCC-2998 colon
[10] = test system: SR leukemia
[11] = test system: RXF 393 renal
[12] = test system: A549 NSCLC
[13] = test system: NCI-H522 lung
[14] = test system: U251 CNS
[15] = test system: SF-268 CNS
[16] = test system: KM12 colon
[17] = test system: HS 578T breast
[18] = test system: EKVX NSCLC
[19] = test system: MOLT-4 leukemia
[20] = test system: NCI-H460 lung
[21] = test system: NCI-H23 lung
[22] = test system: HCT-116 colon
[23] = test system: NCI-H226 lung
[24] = test system: SF-295 CNS
[25] = test system: MDA-MB-231 breast
[26] = test system: DU-145 prostate
[27] = test system: SNB-19 CNS
[28] = test system: SW-620 colon
[29] = test system: OVCAR-3 ovarian
[30] = test system: MALME-3M melanoma
[31] = test system: SK-MEL-2 melanoma
[32] = test system: ACHN renal
[33] = test system: HOP-62 NSCLC
[34] = test system: OVCAR-8 ovarian
[35] = test system: OVCAR-5 ovarian
[36] = test system: SF-539 CNS
[37] = test system: 786-0 renal
[38] = test system: OVCAR-4 ovarian
[39] = test system: SK-OV-3 ovarian
[40] = test system: CCRF-CEM leukemia
[41] = test system: SN12C renal
[42] = test system: SK-MEL-5 melanoma
[43] = test system: IGROV1 ovarian
[44] = test system: HL-60(TB) leukemia
[45] = test system: K-562 leukemia
[46] = test system: MCF7 breast
[47] = test system: LOX IMVI melanoma
[48] = test system: RPMI-8226 leukemia
[49] = test system: SK-MEL-28 melanoma
[50] = test system: TK-10 renal
[51] = test system: BT-549 breast
[52] = test system: PC-3 prostate
[53] = test system: UACC-257 melanoma
[54] = test system: NCI/ADR-RES ovarian
[55] = test system: MDA-MB-435
[56] = test system: CAKI-1 renal
[57] = test system: A498 renal
[58] = test system: T-47D breast

Compound `Cc1cc(-c2ncc(-c3cccnc3)cc2/C=C/c2ccccc2)cnc1-c1cccnc1` has a GI50 [1] of 4.24 µM, a TGI [1] greater than 100 µM and a TGI [2] greater than 100 µM. The GI50 [3] was 2.96 µM, the TGI [3] was greater than 26 µM and the GI50 [4] was 3.91 µM. For the same compound, the TGI [4] was greater than 83.9 µM, the GI50 [5] was 2.95 µM and the TGI [5] was greater than 100 µM. It also gave a GI50 [6] of 3.52 µM, a TGI [6] greater than 100 µM and a GI50 [7] of 2.27 µM. The TGI [7] was 9.04 µM, the GI50 [8] was 5.23 µM and the TGI [8] was greater than 63.4 µM. For the same compound, the GI50 [9] was greater than 25.4 µM, the TGI [9] was greater than 100 µM and the GI50 [10] was 2.69 µM. It also gave a TGI [10] greater than 28.5 µM, a GI50 [11] of 4.13 µM and a TGI [11] of 75.3 µM. The GI50 [12] was 3.92 µM, the TGI [12] was greater than 100 µM and the GI50 [13] was 3.01 µM. The TGI [13] was 14.9 µM, the GI50 [14] was 4.54 µM and the TGI [14] was greater than 100 µM. It also gave a GI50 [15] of 5.81 µM, a TGI [15] greater than 100 µM and a GI50 [16] of 3.3 µM. It also gave a TGI [16] greater than 100 µM, a GI50 [17] of 3.39 µM and a TGI [17] greater than 100 µM. The GI50 [18] was 3.39 µM, the TGI [18] was greater than 100 µM and the GI50 [19] was 1.47 µM. The TGI [19] was 5.99 µM, the GI50 [20] was 2.28 µM and the TGI [20] was 5.27 µM. For the same compound, the GI50 [21] was 4.59 µM, the TGI [21] was greater than 100 µM and the GI50 [22] was 4.22 µM. The TGI [22] was greater than 100 µM, the GI50 [23] was 2.62 µM and the TGI [23] was 7.61 µM. For the same compound, the GI50 [24] was 5.62 µM, the TGI [24] was 52.1 µM and the GI50 [25] was 4.76 µM. For the same compound, the TGI [25] was greater than 100 µM, the GI50 [26] was 3.35 µM and the TGI [26] was greater than 100 µM. It also gave a GI50 [27] of 5.32 µM, a TGI [27] greater than 100 µM and a GI50 [28] of 4.41 µM. For the same compound, the TGI [28] was greater than 100 µM, the GI50 [29] was 3.48 µM and the TGI [29] was 37.7 µM. For the same compound, the GI50 [30] was 2.81 µM, the TGI [30] was 16.9 µM and the GI50 [31] was 4.93 µM. For the same compound, the TGI [31] was greater than 66.9 µM, the GI50 [32] was 3.91 µM and the TGI [32] was greater than 100 µM. For the same compound, the GI50 [33] was 4.45 µM, the TGI [33] was 97.5 µM and the GI50 [34] was 3.81 µM. For the same compound, the TGI [34] was greater than 100 µM, the GI50 [35] was greater than 72.6 µM and the TGI [35] was greater than 100 µM. The GI50 [36] was 11.5 µM, the TGI [36] was greater than 33.2 µM and the GI50 [37] was 6.05 µM. For the same compound, the TGI [37] was greater than 100 µM, the GI50 [38] was greater than 21.1 µM and the TGI [38] was greater than 100 µM. It also gave a GI50 [39] of 19.1 µM, a TGI [39] greater than 100 µM and a GI50 [40] of 1.17 µM. The TGI [40] was 7.76 µM, the GI50 [41] was 3.59 µM and the TGI [41] was greater than 100 µM. It also gave a GI50 [42] of 1.46 µM, a TGI [42] of 3.02 µM and a GI50 [43] of 5.39 µM. The TGI [43] was greater than 100 µM, the GI50 [44] was 2.35 µM and the TGI [44] was 12.3 µM. The GI50 [45] was 3.28 µM, the TGI [45] was greater than 100 µM and the GI50 [46] was 3.02 µM. It also gave a TGI [46] greater than 100 µM, a GI50 [47] of 3.12 µM and a TGI [47] of 19.7 µM. It also gave a GI50 [48] of 2.53 µM, a TGI [48] of 16.7 µM and a GI50 [49] greater than 20.2 µM. It also gave a TGI [49] greater than 100 µM, a TGI [50] greater than 100 µM and a GI50 [51] of 3.05 µM. It also gave a TGI [51] of 20.8 µM, a GI50 [52] of 3.21 µM and a TGI [52] greater than 100 µM. For the same compound, the GI50 [53] was 5.08 µM, the TGI [53] was greater than 100 µM and the GI50 [54] was 3.62 µM. The TGI [54] was greater than 100 µM, the TGI [55] was greater than 100 µM and the GI50 [56] was 4.25 µM. For the same compound, the TGI [56] was greater than 100 µM, the GI50 [57] was 2.31 µM and the TGI [57] was greater than 30.9 µM. It also gave a GI50 [58] of 2.4 µM and a TGI [58] greater than 30.8 µM.
